Test results: patent US8518939B2, “6-pyrimidinyl-pyrimid-4-one derivative” (Mitsubishi Tanabe Pharma Corporation, priority 2007, dated 2013)

Legend:
scopolamine-treated mice = test: Object recognition test, 3 h inter-trial interval, scopolamine-induced episodic memory deficit
CYP2D6 = CYP2D6 (Homo sapiens, UniProt P10635); test: Inhibitory activity on CYP2D6, human recombinant CYPs; format: in vitro ADME; conditions: human recombinant CYP2D6, substrate ethylene glycol ester of luciferin-6'-methyl ether; read-out: CYP 2D6 inhibition, IC50 value
Method: The purpose of this pharmacokinetic study was to investigate the inhibitory effects of test compounds on the specific metabolic activity of human CYP isozymes using human recombinant CYPs in vitro. […] The specific substrate and positive control is ethylene glycol ester of luciferin-6′-methyl ether and quinidine, respectively. The substrate for the CYP isozyme was incubated with human recombinant CYPs in the presence or absence of the test compounds and the metabolic activity of the CYP isozyme was determined. The reaction mixture was preincubated at 37° C. without NADPH generating system. The reaction was started by the addition of NADPH generating system, and then terminated by the addition of acetonitrile. The activities of the human CYP isozymes were measured by fluorescence signal (CYP2D6) of reaction mixture.

CYP2D6, sequence (P10635 whole entry): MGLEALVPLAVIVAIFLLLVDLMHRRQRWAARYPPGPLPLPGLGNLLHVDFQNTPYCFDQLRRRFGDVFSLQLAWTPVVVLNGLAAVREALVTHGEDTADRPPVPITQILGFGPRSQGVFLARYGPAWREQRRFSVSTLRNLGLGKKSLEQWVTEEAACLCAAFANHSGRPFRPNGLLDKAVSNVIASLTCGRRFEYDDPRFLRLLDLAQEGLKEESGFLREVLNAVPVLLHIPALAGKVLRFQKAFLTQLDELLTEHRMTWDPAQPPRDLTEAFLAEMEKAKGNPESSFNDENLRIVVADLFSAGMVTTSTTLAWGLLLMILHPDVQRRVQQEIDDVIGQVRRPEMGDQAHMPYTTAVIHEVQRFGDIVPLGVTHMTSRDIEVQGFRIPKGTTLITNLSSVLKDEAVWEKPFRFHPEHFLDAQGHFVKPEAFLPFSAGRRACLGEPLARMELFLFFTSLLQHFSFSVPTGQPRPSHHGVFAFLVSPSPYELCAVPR

| SMILES | recognition index (RI) (scopolamine-treated mice; scopolamine 1 mg/kg 30 minutes before acquisition, 0 mg/kg test compound, 3 h interval) [%] | IC50 (CYP2D6) [µM] | melting point | effect on episodic memory deficits induced by scopolamine (scopolamine-treated mice; 3 mg/kg oral) | MED, prevention of episodic memory deficits (scopolamine-treated mice; scopolamine-treated mice) [mg/kg] |
| --- | --- | --- | --- | --- | --- |
| CN1[C@@H]2C[C@@H](OC(=O)[C@H](CO)c3ccccc3)C[C@H]1[C@@H]1O[C@@H]12 [scopolamine, reference compound] | 49.9 | – | – | – | – |
| Cc1nc(-c2ccc([C@H]3CN(c4nc(-c5ccncn5)cc(=O)n4C)CCO3)cc2)no1 [Compound of the present invention] | – | > 50 | 191 °C | ineffective | 10 |
| Cn1c(N2CCOC(c3noc(-c4ccccc4)n3)C2)nc(-c2ccncn2)cc1=O (stereo not drawn) [Compound 2, 1-Methyl-2-[2-(5-phenyl-[1,2,4]oxadiazol-3-yl)-morpholin-4-yl]-1H-[4,4′]bipyrimidinyl-6-one] | – | > 25 | – | – | – |
| Cn1ccnc1-c1ccc(C2CN(c3nc(-c4ccncn4)cc(=O)n3C)CCO2)cc1 (stereo not drawn) [Compound 4, 1-Methyl-2-{2-[4-(1-methyl-1H-imidazol-2-yl)-phenyl]-morpholin-4-yl}-1H-[4,4′]bipyrimidinyl-6-one] | – | > 50 | 179.8 °C (dec.) | – | – |
| Cn1c(N2CCOC(c3nc(-c4ccccc4)no3)C2)nc(-c2ccncn2)cc1=O (stereo not drawn) [Compound 1, 1-Methyl-2-[2-(3-phenyl-[1,2,4]oxadiazol-5-yl)-morpholin-4-yl]-1H-[4,4′]bipyrimidinyl-6-one] | – | > 50 | – | – | – |
